We go through 20 compounds from US9271971B2, “Pyrido[3,4-B]indoles and methods of use” (Medivation Technologies, Inc., priority 2009, dated 2016).

The target of assay [1] is T1, human recombinant histamine H2 receptor (Homo sapiens, UniProt P25021).
T1 construct: expressed in transfected cells; host or cells: Chinese hamster ovary (CHO) K1 cells
Nature of the assay: Histamine H2 radioligand binding assay. The following applies: [125I]Aminopotentidine specific binding, read-out: Percentage Inhibition, Histamine Binding (1 μM) H2. As for the experimental part:
To evaluate in radioligand binding assays the activity of compounds of the invention, human recombinant histamine H2 receptor expressed in Chinese hamster ovary (CHO) K1 cells [Ruat, M., Proc. Natl. Acad. Sci. USA. (1990), 87(5):1658] in a 50 mM Phosphate buffer, pH 7.4 was used. Compounds of the invention were incubated with 0.1 nM [^125I]Aminopotentidine for 120 min. at 25° C. Non-specific binding was estimated in the presence of 3 μM Tiotidine. Receptor proteins were filtered and washed, the filters were then counted to determine [^125I]Aminopotentidine specifically bound. Compounds were screened at 1 μM or lower, using 1% DMSO as vehicle. Biochemical assay results are presented as the percent inhibition of specific binding in Table 2.

Assay [2] addresses T2, human recombinant adrenergic α1D receptor (Homo sapiens, UniProt P25100).
T2 construct: expressed in transfected cells; host or cells: human embryonic kidney (HEK-293) cells
T2 sequence (P25100 1-572): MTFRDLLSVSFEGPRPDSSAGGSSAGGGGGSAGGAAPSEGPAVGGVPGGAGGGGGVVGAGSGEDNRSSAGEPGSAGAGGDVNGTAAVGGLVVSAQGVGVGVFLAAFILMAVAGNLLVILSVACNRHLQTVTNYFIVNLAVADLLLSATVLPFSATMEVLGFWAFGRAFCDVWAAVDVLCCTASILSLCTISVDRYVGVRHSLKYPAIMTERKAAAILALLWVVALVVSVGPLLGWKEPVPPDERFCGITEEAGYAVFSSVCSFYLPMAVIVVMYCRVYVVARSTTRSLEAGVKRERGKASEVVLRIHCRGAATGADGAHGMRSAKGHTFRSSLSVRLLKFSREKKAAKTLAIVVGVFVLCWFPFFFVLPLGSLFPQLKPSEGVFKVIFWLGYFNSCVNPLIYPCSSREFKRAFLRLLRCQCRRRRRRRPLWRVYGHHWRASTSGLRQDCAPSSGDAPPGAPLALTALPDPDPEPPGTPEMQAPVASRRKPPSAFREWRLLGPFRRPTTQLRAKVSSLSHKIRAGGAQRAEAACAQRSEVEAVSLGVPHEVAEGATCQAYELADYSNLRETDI
Nature of the assay: Adrenergic α1D radioligand binding assay. The following applies: 1 μM; [3H]Prozosin specific binding; read-out: Percent Inhibition of ligand binding, Adrenergic (1 μM ligand conc.) α1D. As for the experimental part: To evaluate in radioligand binding assays the activity of compounds of the invention, human recombinant adrenergic α1D receptor expressed in human embryonic kidney (HEK-293) cells [Kenny, B. A. et al. Br. J. Pharmacol. (1995), 115(6):981] in a 50 mM Tris-HCl buffer, pH 7.4, was used. Compounds of invention were incubated with 0.6 nM [^3H]Prozosin for 60 min. at 25° C. Non-specific binding was estimated in the presence of 10 μM phentolamine. Receptor proteins were filtered and washed, the filters were then counted to determine [^3H]Prozosin specifically bound. Compounds were screened at 1 μM or lower, using 1% DMSO as vehicle. Compounds of the invention were tested in this biochemical assay. Biochemical assay results for representative compounds were presented as the percent inhibition of specific binding in Table 3.

Assay [3] has as its target T3, human recombinant adrenergic α2A receptor (Homo sapiens, UniProt P08913).
T3 construct: expressed in transfected cells; host or cells: insect Sf9 cells
T3 sequence (P08913 1-465): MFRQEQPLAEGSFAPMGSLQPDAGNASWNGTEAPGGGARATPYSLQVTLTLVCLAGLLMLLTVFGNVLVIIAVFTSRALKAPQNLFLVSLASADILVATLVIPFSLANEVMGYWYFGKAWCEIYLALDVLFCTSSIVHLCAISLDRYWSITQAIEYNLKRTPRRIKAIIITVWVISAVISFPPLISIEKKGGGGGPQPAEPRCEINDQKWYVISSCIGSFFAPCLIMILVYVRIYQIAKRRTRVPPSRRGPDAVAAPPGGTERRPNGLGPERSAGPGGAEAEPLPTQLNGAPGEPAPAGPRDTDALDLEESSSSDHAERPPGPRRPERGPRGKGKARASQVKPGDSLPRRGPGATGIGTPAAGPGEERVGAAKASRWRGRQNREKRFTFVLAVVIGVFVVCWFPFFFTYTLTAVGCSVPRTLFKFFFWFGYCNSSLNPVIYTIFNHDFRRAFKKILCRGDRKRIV
Nature of the assay: Adrenergic α2A radioligand binding assay. Particulars: 1 μM; [3H]MK-912 specific binding; read-out: Percent Inhibition of ligand binding, Adrenergic (1 μM ligand conc.) α2A. Here is the method: To evaluate in radioligand binding assays the activity of compounds of the invention, human recombinant adrenergic α2A receptor expressed in insect Sf9 cells [Uhlen, S et al. J. Pharmacol. Exp. Ther. (1994), 271:1558] in a modified Tris-HCl buffer (50 mM Tris-HCl, pH 7.4, 12.5 mM MgCl2, 2 mM EDTA) was used. Compounds of invention were incubated with 1 nM [^3H]MK-912 for 60 min. at 25° C. MK912 was (2S-trans)-1,3,4,5′,6,6′,7,12b-octahydro-1′,3′-dimethyl-spiro[2H-benzofuro[2,3-a]quinolizine-2,4′(1′H)-pyrimidin]-2′(3′H)-one hydrochloride Non-specific binding was estimated in the presence of 10 μM WB-4101 (2-(2,6-dimethoxyphenoxyethyl)aminomethyl-1,4-benzodioxane hydrochloride). Receptor proteins were filtered and washed, the filters were then counted to determine [^3H]MK-912 specifically bound. Compounds were screened at 1 μM or lower, using 1% DMSO as vehicle. Compounds of the invention were tested in this biochemical assay. Biochemical assay results for representative compounds were presented as the percent inhibition of specific binding in Table 3.

Assay [4] addresses T4, human recombinant serotonin (5-Hydroxytryptamine) 5-HT6 receptor (Homo sapiens, UniProt P50406).
T4 construct: expressed in transfected cells; host or cells: human HeLa cells
As to the kind of experiment: Serotonin 5-HT6 radioligand binding assay. Particulars: [3H]LSD specific binding, read-out: Percent Inhibition of ligand binding, Serotonin (1 μM ligand concentration) 5-HT6. As for the experimental part: To evaluate in radioligand binding assays the activity of compounds of the invention, human recombinant serotonin (5-Hydroxytryptamine) 5-HT6 receptor expressed in human HeLa cells [Monsma, F. J. Jr et al., Mol. Pharmacol. (1993), 43:320] in a modified Tris-HCl buffer (50 mM Tris-HCl, pH 7.4, 150 mM NaCl, 2 mM Ascorbic Acid, 0.001% BSA) was used. Compounds of the invention were incubated with 1.5 nM [3H]Lysergic acid diethylamide (LSD) for 120 min. at 37° C. Non-specific binding was estimated in the presence of 5 μM Serotonin (5-HT). Receptor proteins were filtered and washed, the filters were then counted to determine[3H]LSD specifically bound. Compounds were screened at 1 μM or lower, using 1% DMSO as vehicle. Biochemical assay results are presented as the percent inhibition of specific binding in Table 4.

T4 sequence (P50406 whole entry): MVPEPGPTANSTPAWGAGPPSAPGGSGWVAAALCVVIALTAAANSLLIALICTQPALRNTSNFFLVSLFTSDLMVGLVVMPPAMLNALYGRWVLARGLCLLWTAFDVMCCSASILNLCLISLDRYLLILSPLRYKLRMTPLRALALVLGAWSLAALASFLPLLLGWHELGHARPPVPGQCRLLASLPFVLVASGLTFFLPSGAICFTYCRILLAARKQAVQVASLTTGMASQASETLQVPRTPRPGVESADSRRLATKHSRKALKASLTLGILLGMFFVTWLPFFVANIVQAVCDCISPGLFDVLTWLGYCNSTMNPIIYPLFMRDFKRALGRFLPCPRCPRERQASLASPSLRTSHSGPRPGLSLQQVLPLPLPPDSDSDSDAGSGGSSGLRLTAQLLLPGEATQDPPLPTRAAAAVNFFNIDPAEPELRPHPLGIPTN
T1 sequence (P25021 whole entry): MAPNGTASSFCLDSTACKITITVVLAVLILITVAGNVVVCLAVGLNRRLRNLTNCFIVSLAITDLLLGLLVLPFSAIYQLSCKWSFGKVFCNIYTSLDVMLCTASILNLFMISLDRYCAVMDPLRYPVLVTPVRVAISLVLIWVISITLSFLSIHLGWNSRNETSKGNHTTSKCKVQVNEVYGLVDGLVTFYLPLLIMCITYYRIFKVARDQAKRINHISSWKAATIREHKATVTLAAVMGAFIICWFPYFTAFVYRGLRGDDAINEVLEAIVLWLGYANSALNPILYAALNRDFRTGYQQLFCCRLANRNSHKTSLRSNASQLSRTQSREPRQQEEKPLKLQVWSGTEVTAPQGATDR

Take `Cc1ccc2c(c1)c1c(n2CC(C)(O)c2ccc(Cl)cc2Cl)CN2CCC1C2` (centres unmarked) [Compound 14]: the inhibition at 1 µM is 24% in assay [1], -5% in assay [2], 18% in assay [3] and 1% in assay [4].

Consider `COc1ccc(C(O)Cn2c3c(c4cc(C)ccc42)C2CCN(C3)C2)cc1F` (centres unmarked) [Compound 6], for which the inhibition at 1 µM was -5% in assay [1], 28% in assay [2], 23% in assay [3] and 22% in assay [4].

As to `Cc1ccc2c(c1)c1c(n2CC(C)(O)c2ccc(F)c(F)c2)CN2CCC1C2` (centres unmarked) [Compound 15], the inhibition at 1 µM in assay [1] came out at 13%; in assay [2], 28%; in assay [3], 21%; in assay [4], 59%.

In the case of `Cc1ccc(C(C)(O)Cn2c3c(c4cc(C)ccc42)C2CCN(C3)C2)cc1` (centres unmarked) [Compound 20], the inhibition at 1 µM in assay [1] was 2%; in assay [2] it was 29%; in assay [3], 28%; in assay [4], 13%.

As to `Cc1ccc2c(c1)c1c(n2CCc2nc(-c3ccccc3)cs2)CN2CCC1C2` (centres unmarked) [Compound 19], the inhibition at 1 µM in assay [1] was -9%; in assay [2], 34%; in assay [3], -10%; in assay [4], 9%.

For the compound `Cc1ccc2c(c1)c1c(n2CC(C)(O)c2ccc(F)cc2F)CN2CCC1C2` (centres unmarked) [Compound 17], the inhibition at 1 µM was determined as 4% in assay [1], 19% in assay [2], 4% in assay [3] and 9% in assay [4].

For `Cc1ccc2c(c1)c1c(n2CC(=O)N2CCNCC2)CN2CCC1C2` (centres unmarked) [Compound 24], the inhibition at 1 µM in assay [1] was -3%; in assay [2], 2%; in assay [3] it was 4%; in assay [4] it was 5%.

`Cc1ccc2c(c1)c1c(n2CCc2ccc(C)nc2)CN2CCC1C2` (centres unmarked) [Compound 12]: the inhibition at 1 µM in assay [1] is 4%; in assay [2] it was 25%; in assay [3] it was -4%; in assay [4] it was 2%.

`Cc1ccc2c(c1)c1c(n2CC(=O)N(C)C)CN2CCC1C2` (centres unmarked) [Compound 27]: the inhibition at 1 µM in assay [1] is -3%; in assay [2], 9%; in assay [3] it was 5%; in assay [4] it was 5%.

Turning to `Cc1ccc(/C=C/n2c3c(c4cc(C)ccc42)C2CCN(C3)C2)cc1` (centres unmarked) [Compound 10], the inhibition at 1 µM in assay [1] was 6%; in assay [2], 73%; in assay [3] it was 38%; in assay [4], -4%.

Take `Cc1ccc2c(c1)c1c(n2CC(O)c2ccccc2)CN2CCC1C2` (centres unmarked) [Compound 4]: the inhibition at 1 µM in assay [1] is 5%; in assay [2] it was 54%; in assay [3] it was 54%; in assay [4] it was 56%.

As to `C=C(Cn1c2c(c3cc(C)ccc31)C1CCN(C2)C1)c1ccc(F)cc1` (centres unmarked) [Compound 3], the inhibition at 1 µM in assay [1] is 25%; in assay [2] it was 93%; in assay [3], 93%; in assay [4], 105%.

As for `Cc1ccc2c(c1)c1c(n2CC(O)c2ccc(F)cc2)CN2CCC1C2` (centres unmarked) [Compound 31], the inhibition at 1 µM in assay [1] amounted to 5%; in assay [2], 34%; in assay [3], 41%; in assay [4], 46%.

Take `Cc1ccc2c(c1)c1c(n2CC(C)(O)c2ccc(F)c(Cl)c2)CN2CCC1C2` (centres unmarked) [Compound 18]: the inhibition at 1 µM in assay [1] is 16%; in assay [2], 1%; in assay [3], 30%; in assay [4] it was 49%.

Turning to `Cc1ccc2c(c1)c1c(n2CC(=O)c2ccc(F)cc2)CN2CCC1C2` (centres unmarked) [Compound 28], the inhibition at 1 µM in assay [1] is 18%; in assay [2], 49%; in assay [3], 86%; in assay [4] it was 15%.

Regarding `Cc1ccc2c(c1)c1c(n2CC(=O)c2ccccc2)CN2CCC1C2` (centres unmarked) [Compound 21], the inhibition at 1 µM in assay [1] is -6%; in assay [2], -4%; in assay [3], 5%; in assay [4], 29%.

`Cc1ccc2c(c1)c1c(n2CC(C)(O)c2ccc(F)cc2)CN2CCC1C2` (centres unmarked) [Compound 2]: the inhibition at 1 µM in assay [1] was 8%; in assay [2], 15%; in assay [3], 54%; in assay [4] it was 58%.

With `Cc1ccc2c(c1)c1c(n2CC(=O)N2CCOCC2)CN2CCC1C2` (centres unmarked) [Compound 26], the inhibition at 1 µM is -1% in assay [1], 6% in assay [2], -4% in assay [3] and 4% in assay [4].

Consider `COc1ccc(C(O)Cn2c3c(c4cc(C)ccc42)C2CCN(C3)C2)cc1OC` (centres unmarked) [Compound 8], for which the inhibition at 1 µM amounted to 2% in assay [1], 20% in assay [2], 1% in assay [3] and 11% in assay [4].

For the compound `Cc1ccc2c(c1)c1c(n2CCc2ccc(C(F)(F)F)nc2)CN2CCC1C2` (centres unmarked) [Compound 1], the inhibition at 1 µM was found to be 0% in assay [1], 51% in assay [2], 25% in assay [3] and 10% in assay [4].
